Measurements published in patent publication US11878072B2, “Compositions and methods utilizing poly(vinyl alcohol) and/or other polymers that aid particle transport in mucus” (priority 2012, dated 2024).

From the text: An aqueous dispersion containing pyrene and one of the stabilizers/surface-altering agents listed above was stirred with milling media until particle size was reduced below 500 nm (as measured by dynamic light scattering).

Row | Substance | Sample (relative) <Vmean>rel (relative sample velocity) | Sample <Vmean> (ensemble-average velocity)
1 | Tween 80 | 0.17 | 0.94 um/s
2 | Tyloxapol | −0.02 | 0.42 um/s
